Drawing on ChEMBL document CHEMBL3044948, “Synthesis and Herbicidal Activity of N-(1-Arylethenyl)-2-chloroacetamides” (Agric Biol Chem, 1991), this text covers Activity for 40 molecules.

Calls of active or inactive are those of the source. No cut-off for these calls is given here.

The first experiment concerns Echinochloa oryzicola. Nature of the experiment: Herbicidal activity against Echinochloa oryzicola at 10 g a.i/a measured after 3 weeks. Type of experiment: functional, organism-based.
Take `C=C(c1ccccc1)N(C(=O)CCl)c1ccccc1C`: the outcome was inactive. Consider `CC(C)=C(c1ccccc1)N(C(=O)CCl)c1ccccc1`, for which the outcome was inactive.

For `C=C(c1ccc(SC)s1)N(C(=O)CCl)c1c(C)cccc1C`, the outcome was inactive.

Consider `C=C(c1ccc(OC)cc1)N(C(=O)CCl)c1c(C)cccc1C`, for which the outcome was Active.

For `C=C(c1ccc2ccccc2c1)N(C(=O)CCl)c1c(C)cccc1C`, the outcome was inactive. Regarding `C=C(c1cccc([N+](=O)[O-])c1)N(C(=O)CCl)c1c(C)cccc1C`, the outcome was Active. Turning to `CC(C)=C(c1ccccc1)N(Cc1ccco1)C(=O)CCl`, the result was Active. On the same count and under the same terms, as for `C=C(c1cccc(Br)c1)N(C(=O)CCl)c1c(C)cccc1C`, the entry is “Active”; as for `CC(C)=C(c1ccccc1)N(Cc1ccccc1)C(=O)CCl`, “Active”. `C=C(c1ccccc1)N(C(=O)CCl)c1c(C)cccc1CC`: the result was Active. With `CC(C)=C(c1ccccc1)N(C(=O)CCl)c1c(C)cccc1C`, the outcome was inactive.

`C=C(c1ccc(C#N)cc1)N(C(=O)CCl)c1c(C)cccc1C`: the outcome was Active. With `CCCCCCN(C(=O)CCl)C(=C(C)C)c1ccccc1`, the result was Active.

With `CC(C)=C(c1ccccc1)N(C(=O)CCl)C(C)C`, the outcome was Active. Take `C=C(c1ccccc1Cl)N(C(=O)CCl)c1c(C)cccc1C`: the result was Active. For the molecule `C=C(c1ccccc1)N(C(=O)CCl)c1c(Cl)cccc1Cl`, the outcome was inactive.

As to `CCC(C)N(C(=O)CCl)C(=C(C)C)c1ccccc1` (stereo not given), the outcome was inactive.

With `CC(C)=C(c1ccccc1)N(C)C(=O)CCl`, the result was Active. Still for that read-out and setting: as for `C=C(c1ccccc1C)N(C(=O)CCl)c1c(C)cccc1C`, the entry is “Active”; as for `CC=C(c1ccccc1)N(C(=O)CCl)c1c(C)cccc1C` (mixture of isomers), “Active”; as for `CCN(C(=O)CCl)C(=C(C)C)c1ccccc1`, “Active”.

For `C/C=C(\c1ccccc1)N(CCCC)C(=O)CCl`, the result was Active. Turning to `C=C(c1ccc(OC)cc1)N(CCCCCC)C(=O)CCl`, the result was Active.

`C=C(c1ccccc1)N(C(=O)CCl)c1cccc2ccccc12`: the result was inactive. Turning to `C=C(c1ccccc1)N(C(=O)CCl)c1c(C)cccc1C`, the result was Active. For `C=CCN(C(=O)CCl)C(=C(C)C)c1ccccc1`, the result was Active. For `C=C(c1ccccc1)N(C(=O)CCl)c1ccccc1`, the outcome was inactive. With `C=C(c1cccn1C)N(C(=O)CCl)c1c(C)cccc1C`, the result was inactive. Same read-out and setting: as for `C=C(c1ccco1)N(C(=O)CCl)c1c(C)cccc1C`, the entry is “Active”. On the same count and under the same terms, as for `C=C(c1ccccc1)N(C(=O)CCl)c1ccccc1OC`, the entry is “Active”; as for `CC(C)=C(c1ccccc1)N(C(=O)CCl)c1ccc(Cl)cc1`, “Active”; as for `CCCN(C(=O)CCl)C(=C(C)C)c1ccccc1`, “Active”. As to `C=C(c1ccccc1)N(CC1CCCO1)C(=O)CCl` (stereo not given), the outcome was Active. Still for that read-out and setting: next, `C=C(c1ccc(Cl)c(Cl)c1)N(C(=O)CCl)c1c(C)cccc1C`: “inactive”; `C=C(c1ccccc1OC)N(C(=O)CCl)c1c(C)cccc1C`: “Active”. Still for that read-out and setting: as for `C=C(c1ccccc1)N(C(=O)CCl)c1c(CC)cccc1CC`, the entry is “Active”; as for `C=C(c1ccccc1)N(C(=O)CCl)c1cc(C)nn1C`, “inactive”; as for `C=CCN(C(=O)CCl)/C(=C/C)c1ccccc1`, “Active”. `C=C(c1ccc(Cl)cc1)N(C(=O)CCl)c1c(C)cccc1C`: the result was Active. Regarding `CC(C)=C(c1ccccc1)N(CC(C)C)C(=O)CCl`, the result was inactive.

For another experiment, the system named is Echinochloa oryzicola. Kind of experiment: Herbicidal activity against Echinochloa oryzicola at 1 g a.i/a measured after 3 weeks. Type of experiment: functional, organism-based.
`C=C(c1ccc(OC)cc1)N(C(=O)CCl)c1c(C)cccc1C`: the outcome was inactive. As to `CC(C)=C(c1ccccc1)N(Cc1ccco1)C(=O)CCl`, the outcome was Active. `C=C(c1cccc(Br)c1)N(C(=O)CCl)c1c(C)cccc1C`: the outcome was inactive. Regarding `CC(C)=C(c1ccccc1)N(Cc1ccccc1)C(=O)CCl`, the outcome was Active. Turning to `C=C(c1ccccc1)N(C(=O)CCl)c1c(C)cccc1CC`, the outcome was Active. The same measure, in the same setting: as for `C=C(c1ccc(C#N)cc1)N(C(=O)CCl)c1c(C)cccc1C`, the entry is “inactive”; as for `CCCCCCN(C(=O)CCl)C(=C(C)C)c1ccccc1`, “Active”.

As for `C=C(c1ccccc1Cl)N(C(=O)CCl)c1c(C)cccc1C`, the result was Active. On to `CC(C)=C(c1ccccc1)N(C)C(=O)CCl`, for which the outcome was Active. For `C=C(c1ccccc1C)N(C(=O)CCl)c1c(C)cccc1C`, the result was Active. Regarding `CC=C(c1ccccc1)N(C(=O)CCl)c1c(C)cccc1C` (mixture of isomers), the outcome was inactive. On the same count and under the same terms, as for `CCN(C(=O)CCl)C(=C(C)C)c1ccccc1`, the entry is “Active”. The same measure, in the same setting: as for `C/C=C(\c1ccccc1)N(CCCC)C(=O)CCl`, the entry is “inactive”; as for `C=C(c1ccccc1)N(C(=O)CCl)c1c(C)cccc1C`, “Active”; as for `C=CCN(C(=O)CCl)C(=C(C)C)c1ccccc1`, “Active”. Consider `CCCN(C(=O)CCl)C(=C(C)C)c1ccccc1`, for which the result was inactive. Consider `C=C(c1ccccc1OC)N(C(=O)CCl)c1c(C)cccc1C`, for which the result was Active. Turning to `C=C(c1ccccc1)N(C(=O)CCl)c1c(CC)cccc1CC`, the result was inactive. With `C=CCN(C(=O)CCl)/C(=C/C)c1ccccc1`, the result was inactive.

For the molecule `C=C(c1ccc(Cl)cc1)N(C(=O)CCl)c1c(C)cccc1C`, the outcome was inactive.
